# Experimental data taken from ChEMBL document CHEMBL1201862, “PubChem BioAssay data set” (2004).
# The source made the active and inactive calls.
# Assays:
# [1] = Luminescence Cell-Based Dose Retest to Confirm Inhibitors of Cancer Stem Cells. [Related pubchem assays (depositor defined):AID2717, AID2721]; format: functional; details: Homo sapiens
# Protein RecA = biological target: T1, Protein RecA (Mycobacterium tuberculosis, UniProt P9WHJ3); experiment: Fluorescence Cell-Free Homogeneous Dose Retest to Identify Inhibitors of RecA-Intein Splicing Activity. [Related pubchem assays (depositor defined):AID2097, AID2223, AID489010, AID492950]; format: functional
# T1 sequence (P9WHJ3 whole entry): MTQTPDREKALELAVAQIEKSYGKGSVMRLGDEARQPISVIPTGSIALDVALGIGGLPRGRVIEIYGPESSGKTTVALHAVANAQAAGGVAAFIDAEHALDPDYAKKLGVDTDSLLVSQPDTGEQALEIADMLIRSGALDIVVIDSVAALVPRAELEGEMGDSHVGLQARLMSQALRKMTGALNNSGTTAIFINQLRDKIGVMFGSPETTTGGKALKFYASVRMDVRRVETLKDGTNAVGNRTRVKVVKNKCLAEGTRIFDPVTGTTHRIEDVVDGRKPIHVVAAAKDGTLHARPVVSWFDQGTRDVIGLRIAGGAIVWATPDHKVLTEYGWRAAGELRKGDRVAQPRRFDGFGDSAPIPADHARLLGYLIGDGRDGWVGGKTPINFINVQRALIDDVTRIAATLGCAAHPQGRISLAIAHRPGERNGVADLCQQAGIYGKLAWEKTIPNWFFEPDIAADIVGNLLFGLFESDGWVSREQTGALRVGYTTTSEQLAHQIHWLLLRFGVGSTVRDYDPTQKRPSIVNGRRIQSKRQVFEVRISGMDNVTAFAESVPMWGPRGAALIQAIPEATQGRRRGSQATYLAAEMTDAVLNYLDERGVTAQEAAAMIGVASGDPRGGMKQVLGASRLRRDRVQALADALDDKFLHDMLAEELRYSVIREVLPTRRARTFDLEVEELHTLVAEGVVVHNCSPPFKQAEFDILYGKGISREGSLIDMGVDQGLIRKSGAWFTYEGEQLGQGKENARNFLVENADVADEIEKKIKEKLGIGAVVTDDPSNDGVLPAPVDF
# [2] = biological target: T2, Replicative DNA helicase DnaB (Mycobacterium tuberculosis, UniProt P9WMR3); experiment: DnaB intein splicing inhibitors, dose response, biochemical, cell-free fluorescence (AID 449749); format: functional
# T2 sequence (P9WMR3 whole entry): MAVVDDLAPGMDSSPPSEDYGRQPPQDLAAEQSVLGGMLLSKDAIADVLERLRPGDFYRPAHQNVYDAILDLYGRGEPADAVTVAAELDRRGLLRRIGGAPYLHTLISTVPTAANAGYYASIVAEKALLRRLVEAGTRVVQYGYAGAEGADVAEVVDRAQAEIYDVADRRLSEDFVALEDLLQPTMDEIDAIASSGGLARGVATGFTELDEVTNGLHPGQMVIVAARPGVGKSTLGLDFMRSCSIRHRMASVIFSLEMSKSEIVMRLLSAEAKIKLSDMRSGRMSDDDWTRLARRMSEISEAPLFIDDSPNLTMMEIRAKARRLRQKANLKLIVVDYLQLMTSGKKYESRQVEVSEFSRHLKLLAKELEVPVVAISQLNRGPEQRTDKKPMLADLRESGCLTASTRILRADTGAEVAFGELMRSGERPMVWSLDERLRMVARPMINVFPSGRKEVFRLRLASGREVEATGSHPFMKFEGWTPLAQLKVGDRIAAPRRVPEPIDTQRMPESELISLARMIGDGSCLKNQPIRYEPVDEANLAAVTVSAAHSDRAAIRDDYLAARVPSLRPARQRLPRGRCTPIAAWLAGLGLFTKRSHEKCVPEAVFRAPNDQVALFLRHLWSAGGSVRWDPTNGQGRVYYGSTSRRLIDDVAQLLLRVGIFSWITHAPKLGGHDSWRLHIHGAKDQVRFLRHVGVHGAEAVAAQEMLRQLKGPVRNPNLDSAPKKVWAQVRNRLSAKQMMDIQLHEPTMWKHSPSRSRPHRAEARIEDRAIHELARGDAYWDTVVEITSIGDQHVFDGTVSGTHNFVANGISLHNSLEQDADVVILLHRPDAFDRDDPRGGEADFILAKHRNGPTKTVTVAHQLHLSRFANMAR
# BJ [3] = experiment: cells; format: functional, cell-based; details: Homo sapiens
# BJ [4] = experiment: cytotoxicity toward BJ-TERT fibroblasts, dose response, cell-based, RAS-independent, luminescence (AID 1933); format: functional; details: Homo sapiens
# [5] = Luminescence Cell-Based Dose Response HTS to Identify Inhibitors of 5'UTR Stem-Loop Driven Prion Protein mRNA Translation in H4 Neuroglioblastoma Cells. [Related pubchem assays: 1827 (Project Summary), 1813 (Primary HTS)]; format: functional
# BJ [6] = experiment: cytotoxicity toward BJ-TERT-LT-ST fibroblasts, dose response, cell-based, RAS-independent, luminescence (AID 1935); format: functional; details: Homo sapiens;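 note: BJ fibroblasts immortalized with TERT plus LT and ST oncogenes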
# [7] = inhibitors of firefly luciferase expression or activity, dose response, H4 neuroglioma cells, luminescence (AID 1990); format: functional, cell-based
# [8] = inhibitors of SNCA 5'UTR-driven reporter translation, confirmation, H4 neuroglioma cells, luminescence (AID 1988); format: functional, cell-based
# [9] = cytotoxicity toward DRD oncogenic fibroblasts, dose response, cell-based, non-viral oncogenic, luminescence (AID 1934); format: functional; details: Homo sapiens
# [10] = biological target: T3, Polyadenylate-binding protein 1 (Homo sapiens, UniProt P11940); experiment: PABP1 MLLE–PAM2 binding inhibitor potency, dose response, biochemical, fluorescence polarization, FITC-PAM2 peptide (AID 602259); format: functional; details: read-out: IC50_Mean
# T3 sequence (P11940 whole entry): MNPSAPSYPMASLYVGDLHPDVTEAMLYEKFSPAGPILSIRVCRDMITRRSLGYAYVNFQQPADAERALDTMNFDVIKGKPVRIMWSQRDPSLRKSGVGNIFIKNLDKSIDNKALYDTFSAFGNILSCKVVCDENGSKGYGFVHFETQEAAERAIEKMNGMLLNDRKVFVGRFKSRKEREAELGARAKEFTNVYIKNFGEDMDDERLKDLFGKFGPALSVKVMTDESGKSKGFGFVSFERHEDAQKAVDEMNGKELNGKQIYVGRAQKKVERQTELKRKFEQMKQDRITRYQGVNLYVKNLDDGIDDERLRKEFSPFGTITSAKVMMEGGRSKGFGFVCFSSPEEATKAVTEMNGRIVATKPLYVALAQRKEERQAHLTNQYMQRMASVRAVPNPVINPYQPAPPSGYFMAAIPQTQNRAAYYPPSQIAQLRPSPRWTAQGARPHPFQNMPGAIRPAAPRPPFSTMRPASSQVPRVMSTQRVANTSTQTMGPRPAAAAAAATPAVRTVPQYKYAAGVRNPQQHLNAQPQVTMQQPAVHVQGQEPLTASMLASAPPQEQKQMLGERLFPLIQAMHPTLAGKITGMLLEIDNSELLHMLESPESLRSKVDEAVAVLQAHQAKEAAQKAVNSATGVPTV
# [11] = biological target: T3, Polyadenylate-binding protein 1; experiment: PABP1 MLLE–PAM2 interaction inhibitors, dose response, miRNA deadenylation inhibitor project, biochemical, fluorescence polarization, Cy5-PAM2 peptide, secondary (AID 602260); format: functional; details: read-out: IC50_Mean
# [12] = inhibitors of intracellular T. cruzi replication, confirmation, NIH3T3 host cells, beta-gal luminescence (AID 2044); format: functional, cell-based;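 note: intracellular parasites grown in NIH/3T3 mouse fibroblasts as host cells; luminescent beta-galactosidase reporter signal from transgenic T. cruzi replicating inside host cells; inhibitors lower the luminescence signal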
# [13] = biological target: T4, Heat shock factor protein 1 (Mus musculus, UniProt P38532); experiment: inhibition of MG132-induced HSE-luciferase signal, confirmation, cell-based, NIH3T3, luminescence, dose retest (AID 2382); format: functional;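 note: NIH3T3 fibroblasts with HSF1-driven luciferase reporter stressed by proteasome inhibitor MG132; luminescence from HSF1-driven luciferase expression after 8 hours of MG132 stress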
# T4 sequence (P38532 whole entry): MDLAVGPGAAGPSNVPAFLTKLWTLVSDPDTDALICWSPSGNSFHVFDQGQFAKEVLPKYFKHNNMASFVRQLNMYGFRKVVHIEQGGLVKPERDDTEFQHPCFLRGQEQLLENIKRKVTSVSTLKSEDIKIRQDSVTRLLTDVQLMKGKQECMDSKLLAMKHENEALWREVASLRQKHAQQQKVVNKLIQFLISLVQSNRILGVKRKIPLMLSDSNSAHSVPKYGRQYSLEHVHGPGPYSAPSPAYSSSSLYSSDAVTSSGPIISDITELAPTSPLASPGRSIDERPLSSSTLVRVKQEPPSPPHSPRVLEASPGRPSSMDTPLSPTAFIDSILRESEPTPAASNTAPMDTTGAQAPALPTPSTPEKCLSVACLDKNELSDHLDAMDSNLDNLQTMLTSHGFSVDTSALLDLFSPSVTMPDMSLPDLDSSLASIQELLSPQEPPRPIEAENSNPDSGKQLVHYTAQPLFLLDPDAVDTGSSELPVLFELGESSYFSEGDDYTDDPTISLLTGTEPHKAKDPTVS
# [14] = cytotoxicity toward NIH3T3 fibroblasts, dose response, counter-screen, cell-based, ATP luminescence, mouse fibroblasts (AID 2010); format: functional;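 note: cells exposed to compound for about 90 hours before reading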
# Cytochrome P450 2D6 = Cytochrome P450 2D6 (Homo sapiens, UniProt P10635);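 note: CYP2D6 member of a cytochrome P450 panel assay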
# Chain of Cytochrome P450 2D6 (P10635 whole entry): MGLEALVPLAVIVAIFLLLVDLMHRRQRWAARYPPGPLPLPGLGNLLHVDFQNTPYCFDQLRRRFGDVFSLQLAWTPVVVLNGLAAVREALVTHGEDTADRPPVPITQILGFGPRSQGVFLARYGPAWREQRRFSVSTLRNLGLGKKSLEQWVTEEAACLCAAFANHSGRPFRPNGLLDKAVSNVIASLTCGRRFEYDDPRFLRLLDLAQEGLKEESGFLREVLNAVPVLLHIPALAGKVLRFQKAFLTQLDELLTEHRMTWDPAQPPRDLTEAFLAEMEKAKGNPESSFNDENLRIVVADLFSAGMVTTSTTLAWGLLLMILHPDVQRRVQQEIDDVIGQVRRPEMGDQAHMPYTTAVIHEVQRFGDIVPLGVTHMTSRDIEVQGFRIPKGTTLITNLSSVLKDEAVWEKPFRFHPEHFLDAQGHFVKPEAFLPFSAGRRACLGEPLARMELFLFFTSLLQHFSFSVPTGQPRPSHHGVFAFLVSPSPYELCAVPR
# Cytochrome P450 1A2 = biological target: T5, Cytochrome P450 1A2 (Homo sapiens, UniProt P05177);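 note: PubChem cytochrome P450 panel assay, CYP1A2 panel member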
# T5 sequence (P05177 whole entry): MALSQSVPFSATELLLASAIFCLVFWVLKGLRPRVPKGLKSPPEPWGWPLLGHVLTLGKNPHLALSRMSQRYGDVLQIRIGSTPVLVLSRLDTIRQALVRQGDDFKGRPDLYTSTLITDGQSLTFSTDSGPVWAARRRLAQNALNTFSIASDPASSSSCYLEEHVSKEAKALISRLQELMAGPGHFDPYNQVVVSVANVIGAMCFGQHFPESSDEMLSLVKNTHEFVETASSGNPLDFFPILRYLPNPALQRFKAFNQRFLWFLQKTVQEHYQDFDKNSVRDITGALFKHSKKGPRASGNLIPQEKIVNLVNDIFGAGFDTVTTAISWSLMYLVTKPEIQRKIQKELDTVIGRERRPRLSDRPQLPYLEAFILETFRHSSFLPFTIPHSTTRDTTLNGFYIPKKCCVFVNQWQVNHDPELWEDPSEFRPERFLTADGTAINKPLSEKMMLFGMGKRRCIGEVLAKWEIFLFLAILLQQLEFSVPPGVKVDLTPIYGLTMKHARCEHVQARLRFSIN
# Cytochrome P450 3A4 = Cytochrome P450 3A4 (Homo sapiens, UniProt P08684);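 note: CYP3A4 tested as one member of a cytochrome P450 panel screen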
# Chain of Cytochrome P450 3A4 (P08684 whole entry): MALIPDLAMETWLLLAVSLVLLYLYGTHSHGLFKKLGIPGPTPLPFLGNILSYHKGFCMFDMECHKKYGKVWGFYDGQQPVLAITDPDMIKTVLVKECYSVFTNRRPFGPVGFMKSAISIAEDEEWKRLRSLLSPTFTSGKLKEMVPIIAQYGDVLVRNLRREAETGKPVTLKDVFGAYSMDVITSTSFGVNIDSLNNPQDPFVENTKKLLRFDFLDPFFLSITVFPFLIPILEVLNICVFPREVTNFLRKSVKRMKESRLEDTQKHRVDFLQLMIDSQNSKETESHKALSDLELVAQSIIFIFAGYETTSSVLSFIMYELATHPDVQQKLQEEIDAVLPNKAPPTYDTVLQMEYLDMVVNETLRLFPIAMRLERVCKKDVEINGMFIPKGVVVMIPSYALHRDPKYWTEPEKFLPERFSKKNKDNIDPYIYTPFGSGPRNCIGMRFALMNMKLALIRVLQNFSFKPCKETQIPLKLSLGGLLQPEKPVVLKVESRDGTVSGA
# [15] = P. falciparum Dd2 growth inhibitors, dose response, SYBR Green, cherry-picked samples (AID 1159567); format: functional, cell-based
smiles,measurement,setting,value
CNc1ccccc1C(C)(C)c1cc(-c2cc(C)cc(C)c2)no1,AC50,[1],13.3 µM (active)
COc1cc(/C=C(\C#N)c2nc3ccccc3o2)ccc1O,EC50,Protein RecA,2.41 µM (active)
same,AC50,[2],> 380 µM (inactive)
Fc1cccc(-c2cc3nc4c(c(NCc5ccco5)n3n2)CCCC4)c1,AC50,[1],6.81 µM (active)
COC(=O)C1=C(c2cc3ccccc3o2)C[C@@H]2CC[C@H]1N2C(=O)N1CCCCC1,EC50,BJ [3],28.8 µM (active)
same,EC50,BJ [4],4.58 µM (active)
same,EC50,[5],12.1 µM (active)
same,EC50,BJ [6],20.9 µM (active)
same,EC50,[7],> 120 µM (not active)
same,EC50,[8],10.5 µM (active)
same,EC50,[9],3.8 µM (inconclusive)
Cc1c(NC(=O)Oc2ccccc2)sc(=S)n1C,IC50,[10],> 66 µM (inactive)
same,IC50,[11],> 66 µM (inactive)
Fc1ccc(SCCc2ccncc2)cc1,IC50,[10],> 66 µM (inactive)
same,IC50,[11],> 66 µM (inactive)
Cc1ccc2nc(O)c(CN(c3cccc(C)c3C)S(=O)(=O)c3ccccc3)cc2c1,EC50,BJ [3],46.6 µM (active)
same,EC50,BJ [4],78.2 µM (active)
same,EC50,BJ [6],> 150 µM (not active)
same,EC50,[9],69.9 µM (active)
C[C@@H]1CCC(=O)N(CC[C@H](Sc2ccc(Br)cc2)c2ccccc2)CC1,AC50,[1],5.03 µM (active)
O=C(Nc1ccc(Nc2ccccc2)cc1)c1cccc(F)c1,AC50,[1],3.9 µM (active)
CC(C)c1nc(SCC(=O)Nc2ccc(N3CCOCC3)cc2)c2ccccc2n1,IC50,[10],> 66 µM (inactive)
same,IC50,[11],> 66 µM (inactive)
O=[N+]([O-])c1cccc(NC(S)=Nc2nc(-c3ccccc3Cl)cs2)c1,IC50,[10],> 66 µM (inactive)
same,IC50,[11],> 66 µM (inactive)
Fc1ccc2c(c1)c1nnc(S)nc1n2CCc1ccccc1,IC50,[10],> 66 µM (inactive)
same,IC50,[11],> 66 µM (inactive)
COC(=O)C(C#N)C(c1cccnc1)c1c(C)n[nH]c1O (stereo not drawn),EC50,Protein RecA,1.2 µM (active)
same,AC50,[2],3.08 µM (active)
O=C(CCl)N1N=C(c2cccs2)CC1c1ccco1 (stereo not drawn),EC50,[12],1.98 µM (active)
same,EC50,[13],6.29 µM (active)
same,EC50,Protein RecA,4.21 µM (active)
same,EC50,[14],4.92 µM (active)
same,AC50,[2],25.1 µM (active)
CCOC(=O)c1sc(NC(=O)c2ccccc2OC)nc1C,EC50,BJ [3],22.8 µM (active)
same,EC50,BJ [4],22.3 µM (active)
same,EC50,BJ [6],> 150 µM (inconclusive)
same,EC50,[9],14.7 µM (active)
Cc1cccc2c1NC(=O)/C2=C\C(=O)c1cccs1,AC50,[1],5.12 µM (active)
O=C(CSc1nc2ccccc2c(=O)n1CCCO)NCc1ccccc1,IC50,[10],> 66 µM (inactive)
same,AC50,Cytochrome P450 2D6,39.8 µM (inconclusive)
same,AC50,Cytochrome P450 1A2,31.6 µM (inconclusive)
same,AC50,Cytochrome P450 3A4,3.55 µM (inconclusive)
same,IC50,[11],> 66 µM (inactive)
Cc1cccc(NC(=S)N/N=C/c2c[nH]c3ccccc23)c1,AC50,[1],0.704 µM (active)
O=C(Nc1cccc(F)c1)N1CC(=O)N2[C@H](C1)[C@@H](c1ccc(C#CC3CC3)cc1)[C@@H]2CO,AC50,[15],8.07 µM (active)
CCC(=O)Nc1ccc2c(c1)OC[C@@H](C)N(Cc1cccc(F)c1)C[C@@H](C)[C@H](OC)CN(C)C2=O,AC50,[15],3.64 µM (active)
Cc1ccccc1S(=O)(=O)N1CC(=O)N2[C@H](CO)[C@H](c3ccc(C#CC4CC4)cc3)[C@@H]2C1,AC50,[15],8.89 µM (active)
C[C@H](CO)N1C[C@H](C)[C@@H](CN(C)CC2CCCCC2)Oc2ccc(NC(=O)Nc3ccc(F)cc3)cc2CC1=O,AC50,[15],6.76 µM (active)
C[C@H](CO)N1C[C@H](C)[C@H](CN(C)S(=O)(=O)c2cccs2)OCc2ccccc2-c2c(n(C)c3ccccc23)C1=O,AC50,[15],26.1 µM (active)
Clc1cccc(Nc2nc(-c3ccncc3)cs2)c1,EC50,[12],0.714 µM (active)
same,AC50,[1],3.5 µM (active)
same,EC50,[14],5.87 µM (active)
